From the NIST ThermoML archive (doi:10.1021/acs.jced.5b01104)
Numbers after ± are expanded uncertainties.

Conditions: Liquid, Chromatography

vapor or sublimation pressure (412.6 K): 356 ± 28 kPa | vapor or sublimation pressure (443.2 K): 792 ± 62 kPa | vapor or sublimation pressure (483.2 K): 1902 ± 150 kPa
Compound: O [water]
